Source: patent publication US20260327232A1, “Heteroaryl Compounds as Ligand Directed Degraders of IRAK4” (Celgene Corporation, priority 2023, published 2026)
Structures can show the parent of a compound that is named as a salt.

Legend:
IRAK4 [1] = target: T1, IRAK4 (Homo sapiens, UniProt Q9NWZ3); experiment: ALE THP1 HTRF (IRAK4 in THP1 cell lysates, Homogeneous Time Resolved Fluorescence); assay type: cell-based; design: THP1 Homogeneous Time Resolved Fluorescence (ALE THP1 HTRF) Procedure; endogenous in cells; host or cells: THP1; settings: THP1 cells
T1 sequence (Q9NWZ3 1-460): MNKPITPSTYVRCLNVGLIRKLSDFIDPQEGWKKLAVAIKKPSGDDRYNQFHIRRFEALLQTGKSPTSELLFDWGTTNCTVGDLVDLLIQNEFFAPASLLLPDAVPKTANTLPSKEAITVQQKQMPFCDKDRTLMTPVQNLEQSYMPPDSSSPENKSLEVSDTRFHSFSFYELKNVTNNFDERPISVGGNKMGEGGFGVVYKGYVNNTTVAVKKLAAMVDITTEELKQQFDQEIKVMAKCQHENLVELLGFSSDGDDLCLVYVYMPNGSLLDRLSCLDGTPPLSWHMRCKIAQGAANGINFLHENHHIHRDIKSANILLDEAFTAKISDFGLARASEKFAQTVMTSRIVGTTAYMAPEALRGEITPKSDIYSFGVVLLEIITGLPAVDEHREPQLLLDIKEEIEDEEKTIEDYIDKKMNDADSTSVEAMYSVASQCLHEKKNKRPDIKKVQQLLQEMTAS
Method: Cell culture media was prepared in a tissue culture hood in a sterile environment by adding 10% FBS and 1% Penicillin Streptomycin to 500 mL no phenol red RPMI 1640 media. The media was filtered through a Nalgene Bottle Top Filter and stored at 4° C.
For Homogenous Time Resolved Fluorescence (HTRF) assays, a Cisbio HTRF kit was used, which included: Lysis Buffer #1 4×, Blocking Reagent #3 100×, 20× Antibody 1 (Anti-IRAK4 d2), 20× Antibody 2 (Anti-IRAK4 k), and Detection Buffer.
4× Lysis Buffer was stored at 4° C. For use as 1× Lysis buffer, the 4× solution was diluted with de-ionized water (distilled water, Gibco Cat. #15230279) and 100× Blocking Reagent in a 1:3:0.04 volume ratio.
20× Antibody Solution aliquots were stored in −80° C. and the Detection Buffer was stored in 4° C. For use as a 1× Antibody Solution, the 20× Antibody Solution aliquot was diluted with Detection Buffer in a 1:19 volume ratio.
Cells were lysed at room temperature for 45 min with shaking. A BCA protein assay was performed and normalization was conducted to the desired total protein concentration with 1× lysis buffer. Next, 1× Antibody Solutions were prepared by adding 380 μL Detection Buffer to 20 μL 20× Antibody Solution aliquots and mixing well. 1× Antibody Solutions were combined 1:1 and briefly vortexed. For control wells, 20 μL 1× anti IRAK4-k Antibody Solution was saved. The 384-well plate (ProxiPlate-384 Plus, Perkin Elmer Cat. #6008289) was loaded by adding 4 μL of the mixed Antibody Solution to empty wells using a single channel repeater. Using a multi-channel repeater, 16 μL lysate was added per well, and any bubbles that were formed were popped with 20 μL pipette tips and Kimwipe edges. In column 10, triplicates of each control was prepared. In wells A10, B10, and C10, buffer control was prepared by adding 16 μL Lysis Buffer and 4 μL Detection Buffer. In wells D10, E10, and F10, cryptate control was prepared by adding 16 μL Lysis Buffer, 2 μL Detection Buffer, and 2 μL 1× anti IRAK4-k Antibody Solution. In wells G10, H10, and 110, a negative control was prepared by adding 16 μL Lysis Buffer and 4 μL mixed Antibody Solution. The plate was sealed with a clear seal and covered with an aluminum lid. The plate was spun down at 800 g for 5 min and incubated in the dark at room temperature overnight. The next day, the plate was spun down at 800 g for 5 min. The samples were analyzed by a plate reader (Envision, PerkinElmer) using the Desnor 384 HTRF program.

IRAK4 [2] = target: T1, IRAK4; experiment: IRAK4 PhosphoSens Biochemical Assay (BIOCHEM); settings: 200 μM ATP, 10 μM peptide substrate AQT0326, 1 nM IRAK4, room temperature, 240 minutes

EC50 (IRAK4 [1]) [nM] | IC50 (IRAK4 [2]) [nM] | SMILES
7 | < 0.5 | Cn1nc(C2CCC(=O)NC2=O)c2cccc(N3CCN(C[C@H]4CC[C@H](n5cc(NC(=O)c6cnn7ccc(N8C[C@H](N)C[C@@H](F)C8)nc67)c(C(F)F)n5)CC4)CC3)c21 (some centres unmarked) [P-8]
10 | < 0.5 | CN(c1ccc2c(C3CCC(=O)NC3=O)nn(C)c2c1)C1CCN(CC[C@H]2CC[C@H](n3cc(NC(=O)c4cnn5ccc(N6C[C@H](N)C[C@@H](F)C6)nc45)c(C(F)F)n3)CC2)CC1 (some centres unmarked) [P-33]
5 | < 0.5 | Cn1nc(C2CCC(=O)NC2=O)c2ccc(NC3CCN(CC4CCC(n5cc(NC(=O)c6cnn7ccc(N8C[C@H](N)C[C@H](F)C8)nc67)c(C(F)F)n5)CC4)CC3)cc21 (some centres unmarked) [P-19]
> 10000 | < 0.5 | Cn1nc(C2CCC(=O)NC2=O)c2ccc(N3CCN(C[C@H]4CC[C@H](n5cc(NC(=O)c6cnn7ccc(N8C[C@H](N)C[C@@H](F)C8)nc67)c(C(F)F)n5)CC4)CC3)cc21 (some centres unmarked) [P-14]
5 | < 0.5 | Cn1nc(C2CCC(=O)NC2=O)c2ccc(NC3CCN(CC[C@H]4CC[C@H](n5cc(NC(=O)c6cnn7ccc(N8C[C@H](N)C[C@@H](F)C8)nc67)c(C(F)F)n5)CC4)CC3)cc21 (some centres unmarked) [P-16]
5 | < 0.5 | C[C@H]1CN(CCN2CCC(n3cc(NC(=O)c4cnn5ccc(N6C[C@H](N)C[C@@H](F)C6)nc45)c(C(F)F)n3)CC2)CCN1c1ccc2c(C3CCC(=O)NC3=O)nn(C)c2c1 (some centres unmarked) [P-36]
5 | < 0.5 | Cn1nc(C2CCC(=O)NC2=O)c2cccc(N3CCC(NC(=O)[C@H]4CC[C@H](n5cc(NC(=O)c6cnn7ccc(N8C[C@H](N)C[C@@H](F)C8)nc67)c(C(F)F)n5)CC4)CC3)c21 (some centres unmarked) [P-6]
> 10000 | < 0.5 | CN(C)c1ccn2ncc(C(=O)Nc3cn([C@H]4CC[C@H](CN(C)C5CCN(c6ccc7c(C8CCC(=O)NC8=O)nn(C)c7c6)CC5)CC4)nc3C(F)F)c2n1 (some centres unmarked) [P-43]
3 | < 0.5 | CN(c1ccc2c(C3CCC(=O)NC3=O)nn(C)c2c1)C1CCN(C[C@H]2CC[C@H](n3cc(NC(=O)c4cnn5ccc(N6C[C@H](N)C[C@@H](F)C6)nc45)c(C(F)F)n3)CC2)CC1 (some centres unmarked) [P-31]
5 | < 0.5 | C[C@@H]1CN(CCN2CCC(n3cc(NC(=O)c4cnn5ccc(N6C[C@H](N)C[C@@H](F)C6)nc45)c(C(F)F)n3)CC2)CCN1c1ccc2c(C3CCC(=O)NC3=O)nn(C)c2c1 (stereo partly drawn) [P-37, 5-((3R,5R)-3-amino-5-fluoropiperidin-1-yl)-N-(3-(difluoromethyl)-1-(1-(2-((3R)-4-(3-(2,6-dioxopiperidin-3-yl)-1-methyl-1H-indazol-6-yl)-3-methylpiperazin-1-yl)ethyl)piperidin-4-yl)-1H-pyrazol-4-yl)pyrazolo[1,5-a]pyrimidine-3-carboxamide]
4 | < 0.5 | Cn1nc(C2CCC(=O)NC2=O)c2cccc(NC3CCN(C(=O)[C@H]4CC[C@H](n5cc(NC(=O)c6cnn7ccc(N8C[C@H](N)C[C@@H](F)C8)nc67)c(C(F)F)n5)CC4)CC3)c21 (stereo partly drawn) [P-9, 5-((3R,5R)-3-amino-5-fluoropiperidin-1-yl)-N-(3-(difluoromethyl)-1-((1r,4r)-4-(4-((3-(2,6-dioxopiperidin-3-yl)-1-methyl-1H-indazol-7-yl)amino)piperidine-1-carbonyl)cyclohexyl)-1H-pyrazol-4-yl)pyrazolo[1,5-a]pyrimidine-3-carboxamide hydrochloride]
> 10000 | 0.5 | Cn1nc(C2CCC(=O)NC2=O)c2ccc(NC3CCN(C(=O)[C@H]4CC[C@H](n5cc(NC(=O)c6cnn7ccc(N8C[C@H](N)C[C@@H](F)C8)nc67)c(C(F)F)n5)CC4)CC3)cc21 (some centres unmarked) [P-1]
10 | < 0.5 | Cn1nc(C2CCC(=O)NC2=O)c2cccc(N3CCC(NC[C@H]4CC[C@H](n5cc(NC(=O)c6cnn7ccc(N8C[C@H](N)C[C@@H](F)C8)nc67)c(C(F)F)n5)CC4)CC3)c21 (some centres unmarked) [P-15]
> 10000 | < 0.5 | CN(C[C@H]1CC[C@H](n2cc(NC(=O)c3cnn4ccc(N5CCOC5)nc34)c(C(F)F)n2)CC1)C1CCN(c2ccc3c(C4CCC(=O)NC4=O)nn(C)c3c2)CC1 (some centres unmarked) [P-41]
1 | < 0.5 | CN(c1ccc2c(C3CCC(=O)NC3=O)nn(C)c2c1)C1CCN(C[C@H]2CC[C@H](n3cc(NC(=O)c4cnn5ccc(N6CCOCC6)nc45)c(C(F)F)n3)CC2)CC1 (some centres unmarked) [P-32]
5 | < 0.5 | Cn1nc(C2CCC(=O)NC2=O)c2ccc(N[C@@H]3CCN(CC4CCC(n5cc(NC(=O)c6cnn7ccc(N8C[C@H](N)C[C@@H](F)C8)nc67)c(C(F)F)n5)CC4)C[C@H]3F)cc21 (some centres unmarked) [P-22]
4 | 0.8 | CN(CC[C@H]1CC[C@H](n2cc(NC(=O)c3cnn4ccc(N5CCOCC5)nc34)c(C(F)F)n2)CC1)C1CCN(c2cccc3c(C4CCC(=O)NC4=O)nn(C)c23)CC1 (some centres unmarked) [P-35]
17 | < 0.5 | Cn1nc(C2CCC(=O)NC2=O)c2cccc(N3CCN(CCC4CCC(n5cc(NC(=O)c6cnn7ccc(N8C[C@H](N)C[C@@H](F)C8)nc67)c(C(F)F)n5)CC4)CC3)c21 (some centres unmarked) [P-11]
3750 | 2.4 | CN(C[C@H]1CC[C@H](n2cc(NC(=O)c3cnn4ccc(N5CC[C@@H](c6ccn(C)n6)C5)nc34)c(C(F)F)n2)CC1)C1CCN(c2ccc3c(C4CCC(=O)NC4=O)nn(C)c3c2)CC1 (some centres unmarked) [P-47]
4 | < 0.5 | CN(C[C@H]1CC[C@H](n2cc(NC(=O)c3cnn4ccc(NCCN)nc34)c(C(F)F)n2)CC1)C1CCN(c2ccc3c(C4CCC(=O)NC4=O)nn(C)c3c2)CC1 (some centres unmarked) [P-45]
1 | < 0.5 | Cn1nc(C2CCC(=O)NC2=O)c2ccc(C(=O)N3CCN(C[C@H]4CC[C@H](n5cc(NC(=O)c6cnn7ccc(N8C[C@H](N)C[C@@H](F)C8)nc67)c(C(F)F)n5)CC4)CC3)cc21 (some centres unmarked) [P-17]
5.6 | < 0.5 | Cn1nc(C2CCC(=O)NC2=O)c2ccc(N3CCC(NC(=O)[C@H]4CC[C@H](n5cc(NC(=O)c6cnn7ccc(N8C[C@H](N)C[C@@H](F)C8)nc67)c(C(F)F)n5)CC4)CC3)cc21 (stereo partly drawn) [P-4, 5-((3R,5R)-3-amino-5-fluoropiperidin-1-yl)-N-(3-(difluoromethyl)-1-((1r,4r)-4-((1-(3-(2,6-dioxopiperidin-3-yl)-1-methyl-1H-indazol-6-yl)piperidin-4-yl)carbamoyl)cyclohexyl)-1H-pyrazol-4-yl)pyrazolo[1,5-a]pyrimidine-3-carboxamide hydrochloride]
6 | < 0.5 | Cn1nc(C2CCC(=O)NC2=O)c2ccc(N3CCN(CCN4CCC(n5cc(NC(=O)c6cnn7ccc(N8C[C@H](N)C[C@@H](F)C8)nc67)c(C(F)F)n5)CC4)CC3)cc21 (stereo partly drawn) [P-40, N-[3-(Difluoromethyl)-1-[1-[2-[4-[3-(2,6-dioxo-3-piperidyl)-1-methyl-indazol-6-yl]piperazin-1-yl]ethyl]-4-piperidyl]pyrazol-4-yl]-5-[(3R,5R)-3-amino-5-fluoro-1-piperidyl]pyrazolo[1,5-a]pyrimidine-3-carboxamide]
3510 | – | Cc1ccc(Nc2ccn3ncc(C(=O)Nc4cn([C@H]5CC[C@H](CN(C)C6CCN(c7ccc8c(C9CCC(=O)NC9=O)nn(C)c8c7)CC6)CC5)nc4C(F)F)c3n2)cn1 (some centres unmarked) [P-48]
